In one data set the test system is HDF derived from human. As to the kind of experiment: Oxidative stress load (hydrogen peroxide) on aged cells, cell number by WST-8 (Test Example 4 B). Type of data set: cell-based. The note with it: HDF from person, 75 μM ATP prodrug 24 hours, then 200 μM hydrogen peroxide 6 hours. The protocol:
(§1) Human Dermal Fibroblasts (HDF) derived from human (Toyobo) were seeded at 5000 cells/well in DMEM low glucose, 10% FBS, and 1% penicillin/streptomycin, and three hours later, the ATP prodrug dissolved in DMSO was added at either 0 or 50 μM. (A) The sample was incubated for 24 hours. The amount of DNA was measured using picogreen, and converted to cell count from a calibration curve separately created. The ATP level was quantified using the ATP measurement kit (Dojin Chemical), and the ATP level per cell was calculated. (B) 75 μM of the ATP prodrug was added to the HDF derived from human, and the medium was replaced with serum-free medium comprising 200 μM of hydrogen peroxide after 24 hours, followed by incubating the mixture for 6 hours. After 6 hours, the cells were washed, and the cell numbers were compared using the WST-8 kit.
(In general: Tetrazolium assays rely on reduction of a dye to a coloured formazan, in cell work by metabolically active cells.)

The test system of data set [1] is Human Dermal Fibroblasts (HDF) derived from human. As to the kind of experiment: Intracellular ATP level in young and aged human dermal fibroblasts (Test Example 4 A). The data set is classed as cell-based. Conditions: 50 μM, 24 hours. The protocol: as §1
For a further data set, the system named is MCF7 cells. Put plainly: Effect of ATP analogs on intracellular ATP concentration in MCF7 cells (Test Example 2). Type of data set: cell-based, human. Conditions: MCF7, 100 μM, one day and two days, normalized to DNA, compared with adenosine, AMP. As to the method: Adenosine, AMP, ATP, and the ATP prodrug were added to the culture medium of MCF7 cells (5000 cells/well) at a concentration of 100 μM, and, one day and two days later, ATP was measured, followed by normalizing the results to the DNA amounts.

The test system of data set [2] is nematodes. As to the kind of experiment: Lifespan extension in model organism (nematode), survival analysis (Test Examples 8 and 10). Type of data set: in vivo. Conditions: for average lifespan extended compared to the control: 1% DMSO. The protocol:
The ATP prodrug prepared in Example 1, dissolved in DMSO, was added to the liquid Nematode Growth Medium (NGM) that had been sterilized and maintained at 60° C. at a final concentration of 100 μM, so as to prepare an ATP prodrug-containing NGM plate. At this time, the final concentration of DMSO in the NGM was adjusted to 1%. […] Onto the surface of the NGM plate used immediately before survival analysis, the bacterium Escherichia coli strain OP50 stirred in M9 buffer was applied as food for the nematodes.
Thirty-five nematodes were transferred to the NGM plate, after performing age synchronization. The nematodes were transferred to a new NGM plate every day from the first day of adulthood (the third day) to the seventh day, and every two days from the eighth day until the nematodes died. At the same time, the numbers of living nematodes and dead nematodes were recorded. Survival status of the nematodes was determined by whether they reacted when touched. Average lifespan was calculated from the results obtained, and the average lifespans were compared to determine the lifespan extension rate of the nematodes. This experiment was conducted four times to confirm the reproducibility (In cases of both with and without the addition of proATP, n=114).
ATP prodrug-neo dissolved in DMSO, was added to the liquid Nematode Growth Medium (NGM) that had been sterilized and maintained at 60° C. at a final concentration of 200 µM, so as to prepare an ATP prodrug-neo-containing NGM plate. At this time, the final concentration of DMSO in the NGM was adjusted to 1%. […]
Thirty-five nematodes were transferred to the NGM plate, after performing age synchronization. […] At the same time, the numbers of living nematodes and dead nematodes were recorded. Survival status of the nematode was determined by whether they reacted when touched. Average lifespan was calculated from the results obtained, and the average lifespans were compared to determine the lifespan extension rate of the nematodes. […]

Data set [3] has as its system Human liver cancer cells (HepG2). As to the kind of experiment: Intracellular ATP level in liver cancer cells (Test Example 6). Type of data set: cell-based. Conditions: HepG2 (cultured cells), varying concentrations, 24 hours. As to the method: Human liver cancer cells (HepG2) were seeded at 5000 cells per well in DMEM with 10% FBS and 1% penicillin/streptomycin, and after 3 hours, a solution of the ATP prodrug prepared in Example 1 in DMSO at varying concentrations was added to the wells. After 24 hours, the amount of DNA was measured using picogreen, and converted to cell count based on a calibration curve separately created. The ATP level was quantified using the ATP measurement kit (Dojin Chemical), resulting in the ATP level per cell.

The subject of data set [4] is AMP-activated protein kinase (AMPK). Put plainly: Intracellular ATP levels using AMPK inhibitor (Test Example 7). Conditions: normal human dermal fibroblasts, ATP prodrug 100 μM, 24 hours.
In data set [5] the test system is MCF7 (human breast cancer cells). As to the kind of experiment: Effect of ATP prodrug on intracellular ATP concentration in MCF7 cells (Test Example 1). The data set is classed as cell-based. The note with it: MCF7, 100 μM ATP prodrug, after 3 days, ATP per cell. As to the method: MCF7 (human breast cancer cells) (RIKEN BRC) were seeded at 5000 cells per well in DMEM low glucose, 10% FBS, and 1% penicillin/streptomycin, and, after 3 hours, solutions of the ATP prodrug prepared in Example 1 in DMSO at varying concentrations were added to those wells. Three days later, the amounts of DNA were measured using picogreen, and converted to cell counts from a calibration curve separately created. The amount of ATP was quantified using the ATP measurement kit (Dojin Chemical), and the amount of ATP per cell was calculated.

For data set [6], the system named is NHDF (normal human dermal fibroblasts). Put plainly: Cytotoxicity by LDH release (Test Example 5). The data set is classed as cell-based. Conditions: 24 hours. As to the method:
NHDF (normal human dermal fibroblasts) were seeded at 5000 cells per well in DMEM/F12 with 10% FBS and 1% penicillin/streptomycin, and after 3 hours, a solution of the ATP prodrug prepared in Example 1 in DMSO at varying concentrations was added to the wells. After 24 hours, the release of the cytotoxicity marker, lactate dehydrogenase (LDH), was quantified using the LDH assay kit (Dojin Chemical), and the cytotoxicity was calculated.
Background: LDH leaks from cells whose membrane has failed.

The subject of another data set is normal pig liver cells. Put plainly: Intracellular ATP level in primary liver cells (Test Example 6). The data set is classed as cell-based. The note with it: varying concentrations, 24 hours. The protocol: In addition to this study, normal pig liver cells were seeded at 5000 cells per well in the liver cell differentiation environment (Hepatp-STIM, 1 μg/100 mL EGF, 1% penicillin/streptomycin), and after 3 hours, a solution of the ATP prodrug in DMSO at varying concentrations was added to the wells. The DNA amount was measured using picogreen 24 hours later. The ATP level was quantified using the ATP measurement kit (Dojin Chemical), and the ATP level was provided.

Data set [7] concerns nematodes. As to the kind of experiment: ATP level in model organism (nematode). Type of data set: in vivo. Conditions: nematodes on NGM plate with 100 μM ATP prodrug, seventh day of cultivation. As to the method: The culture of the nematodes and the addition of the ATP prodrug to the nematodes were conducted under the same conditions as those in the survival analysis. On the seventh day of cultivation, five nematodes were collected for each condition, totaling twenty-five nematodes, and were transferred to a 24-well plate containing PBS, followed by conducting ultrasonic disruption while kept on ice for one minute. Then, the crushed liquid was collected into a microtube, and after centrifugation (15,000 rpm, 30 minutes, 4° C.), the supernatant was collected. Amount of the ATP in the supernatant was quantified using the ATP measurement kit (Dojin Chemical), and the amount of the ATP per nematode was calculated.

The next data set concerns Human fibroblasts (NHDF). As to the kind of experiment: Effect on intracellular ATP concentration using normal cells (Test Example 3). The data set is classed as cell-based. The note with it: 200 μM ATP prodrug, one day, ATP per cell. As to the method: Human fibroblasts (NHDF) (Takara Bio) were seeded at 5000 cells per well in DMEM low glucose, 10% FBS, and 1% penicillin/streptomycin, and, after 3 hours, a solution of the ATP prodrug prepared in Example 1 in DMSO at varying concentrations was added to the wells. One day later, the amount of DNA was measured using picogreen, and converted to cell count from a calibration curve separately created. The ATP level was quantified using the ATP measurement kit (Dojin Chemical), and the ATP level per cell was calculated.

Data set [8] relates to HDF75 (human dermal fibroblasts derived from a person). Put plainly: Effect of ATP prodrug-neo on intracellular ATP concentration (Test Example 9). The data set is classed as cell-based. Conditions: HDF75, varying concentrations, 24 hours, ATP per cell. The protocol:
HDF75 (human dermal fibroblasts derived from a person) (Cell Applications, Inc.) were seeded at 5000 cells per well in the human dermal fibroblast growth medium, and after 3 hours, a solution of the ATP prodrug-neo prepared in Example 2 in DMSO at varying concentrations was added to the well. After 24 hours, the amount of DNA was measured using the picogreen and converted to cell count from a calibration curve separately created. The amount of ATP was quantified using the ATP measurement kit (Dojin Chemical), and the amount of ATP per cell was calculated.

For data set [9] the following is noted: cited from earlier work.
Data set [10] deals with nematodes. Conditions: nematode, literature values of other drugs; cited from earlier work.

Like-named read-outs stand apart in the source and are kept apart here.

Data on six molecules can be found in US20260115216A1, “NUCLEIC ACID PRECURSOR” (priority 2022, published 2026).

For `CCC(CC)COC(=O)[C@H](C)N[P@](=O)(OC[C@H]1O[C@@H](n2cnc3c(N)ncnc32)[C@H](O)[C@@H]1O)Oc1ccccc1` [ATP prodrug, (S)-2-Ethylbutyl 2-(((S)-(((2R,3S,4R,5R)-5-(6-amino-9H-purine-9-yl)-3,4-dihydroxy-tetrahydrofuran-2-yl)methoxy) (phenoxy)phosphoryl)amino)propanoate], in the data set with HDF derived from human, the “cell number under oxidative stress” value is given as “suppresses the decrease in cell number”. Moreover, the “intracellular ATP levels” value (in [1]; in [3]; in the data set on normal pig liver cells) was “increased” in each case. Further, in the data set with MCF7 cells, the “intracellular ATP level” value is listed as “increased”. Moreover, the “Lifespan Extension Rate” value in the data set with nematodes [2] (nematode, the present invention) stood at 133%. The “average lifespan extended compared to the control” value with nematodes [2] (nematodes on NGM plate with 100 μM ATP prodrug) was “approximately 33%”. For the same molecule, in data set [4], the “AMPK activation (suggested from inhibitor experiment)” value was “activates the AMPK”. In addition, the “intracellular ATP amount compared to the control level” value in data set [5] was “approximately 2.5 times”. Besides, in data set [6] (256 μM), the “amount of LDH release” value is listed as “remains low”. In [6] (LDH assay), the cytotoxicity to cells result is “low cytotoxicity”. Also, the “amount of ATP per nematode higher than control” value with nematodes [7] is “approximately 23%”. In addition, in the data set on Human fibroblasts (NHDF), the “intracellular ATP level compared to the control (0 μM)” value came out at 1.7 times.
In the case of `C[C@H](NP(=O)(N[C@@H](C)C(=O)OCC(C)(C)C)OC[C@H]1O[C@@H](n2cnc3c(N)ncnc32)C(O)C1O)C(=O)OCC(C)(C)C` (stereo partly shown) [ATP prodrug-neo], in the data set on nematodes [2] (nematodes on NGM plate with 200 µM ATP prodrug-neo), the “average lifespan extended compared to the control” value is “approximately 26%”. Also, the “intracellular ATP levels” value in [8] was “increased”.
Turning to `Nc1ncnc2c1ncn2[C@@H]1O[C@H](COP(=O)(O)OP(=O)(O)OP(=O)(O)O)[C@@H](O)[C@H]1O` [ATP, adenosine triphosphate], the half-life in blood entry in data set [9] is “about 10 seconds”.
Consider `CN(C)C(=N)N=C(N)N` [Metformin], for which, in the data set on nematodes [10], the “Lifespan Extension Rate” value is 127%.
`NC(=O)c1cccnc1` [Nicotinamide]: the “Lifespan Extension Rate” value in the data set on nematodes [10] is 116%.
On to `Oc1ccc(C=Cc2cc(O)cc(O)c2)cc1` [Resveratrol], for which the “Lifespan Extension Rate” value in the data set on nematodes [10] is 110%.
